# According to ChEMBL document CHEMBL1201862, “PubChem BioAssay data set” (2004):
#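 96-well plates; 48 h exposure; 5 concentrations. Endpoints by linear interpolation between flanking doses. Not reached: highest tested concentration assigned. At the GI50, growth is halved.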 The source made the active and inactive calls. Rule as the data show it: active = GI50 up to about 1.1 µM and inactive = higher.
# Legend:
# Test in all cases: NCI tumour cell line growth inhibition, 48 h
# SNB-75 = system: SNB-75
# SF-268 = system: SF-268
# Hs-578T = system: Hs-578T
# NCI-H522 = system: NCI-H522
# NCI/ADR-RES = system: NCI/ADR-RES
# A498 = system: A498
# HCT-116 = system: HCT-116
# COLO 205 = system: COLO 205
# CAKI-1 = system: CAKI-1
# PC-3 = system: PC-3
# MOLT-4 = system: MOLT-4
# ACHN = system: ACHN
# HOP-62 = system: HOP-62
# MDA-MB-231 = system: MDA-MB-231
# SF-539 = system: SF-539
# OVCAR-5 = system: OVCAR-5
# EKVX = system: EKVX
# DU-145 = system: DU-145
# TK-10 = system: TK-10
# SW-620 = system: SW-620
# M14 = system: M14
# SK-MEL-2 = system: SK-MEL-2
# MCF7 = system: MCF7
# NCI-H226 = system: NCI-H226
# A549 = system: A549
# HT-29 = system: HT-29
# UACC-62 = system: UACC-62
# T47D = system: T47D
# UO-31 = system: UO-31
# CCRF-CEM = system: CCRF-CEM
# HCC 2998 = system: HCC 2998
# UACC-257 = system: UACC-257
# RXF 393 = system: RXF 393
# BT-549 = system: BT-549
# 786-0 = system: 786-0
# U-251 = system: U-251
# SK-MEL-5 = system: SK-MEL-5
# KM12 = system: KM12
# SK-OV-3 = system: SK-OV-3
# LOX IMVI = system: LOX IMVI
# MDA-N = system: MDA-N
# NCI-H23 = system: NCI-H23
# RPMI-8226 = system: RPMI-8226
# OVCAR-8 = system: OVCAR-8
# K562 = system: K562
# OVCAR-3 = system: OVCAR-3
# NCI-H460 = system: NCI-H460
# OVCAR-4 = system: OVCAR-4
# IGROV-1 = system: IGROV-1
# SNB-19 = system: SNB-19
# MDA-MB-435 = system: MDA-MB-435
# SK-MEL-28 = system: SK-MEL-28
# HCT-15 = system: HCT-15
# Malme-3M = system: Malme-3M
# SF-295 = system: SF-295
# SN12C = system: SN12C
# HOP-92 = system: HOP-92
# HL-60 = system: HL-60
smiles,measurement,setting,value
CC(C)(C)OC(=O)CC(NC(=O)OC(C)(C)C)C(=O)NC(C(=O)O)C(O)c1ccccc1 (stereo not given),GI50,SNB-75,> 100 µM (inactive)
same,GI50,SF-268,50.2 µM (inactive)
same,GI50,Hs-578T,70.8 µM (inactive)
same,GI50,NCI-H522,> 100 µM (inactive)
same,GI50,NCI/ADR-RES,> 100 µM (inactive)
same,GI50,A498,> 100 µM (inactive)
same,GI50,HCT-116,79.1 µM (inactive)
same,GI50,COLO 205,> 100 µM (inactive)
same,GI50,CAKI-1,> 100 µM (inactive)
same,GI50,PC-3,91.4 µM (inactive)
same,GI50,MOLT-4,32.4 µM (inactive)
same,GI50,ACHN,> 100 µM (inactive)
same,GI50,HOP-62,> 100 µM (inactive)
same,GI50,MDA-MB-231,65.2 µM (inactive)
same,GI50,SF-539,> 100 µM (inactive)
same,GI50,OVCAR-5,> 100 µM (inactive)
same,GI50,EKVX,> 100 µM (inactive)
same,GI50,DU-145,> 100 µM (inactive)
same,GI50,TK-10,> 100 µM (inactive)
same,GI50,SW-620,40.3 µM (inactive)
same,GI50,M14,> 100 µM (inactive)
same,GI50,SK-MEL-2,> 100 µM (inactive)
same,GI50,MCF7,37.6 µM (inactive)
same,GI50,NCI-H226,13.9 µM (inactive)
same,GI50,A549,> 100 µM (inactive)
same,GI50,HT-29,75.3 µM (inactive)
same,GI50,UACC-62,37.5 µM (inactive)
same,GI50,T47D,80.9 µM (inactive)
same,GI50,UO-31,> 100 µM (inactive)
same,GI50,CCRF-CEM,51.4 µM (inactive)
same,GI50,HCC 2998,14.3 µM (inactive)
same,GI50,UACC-257,> 100 µM (inactive)
same,GI50,RXF 393,57.9 µM (inactive)
same,GI50,BT-549,> 100 µM (inactive)
same,GI50,786-0,> 100 µM (inactive)
same,GI50,U-251,77.6 µM (inactive)
same,GI50,SK-MEL-5,56 µM (inactive)
same,GI50,KM12,97.7 µM (inactive)
same,GI50,SK-OV-3,41.7 µM (inactive)
same,GI50,LOX IMVI,> 100 µM (inactive)
same,GI50,MDA-N,> 100 µM (inactive)
same,GI50,NCI-H23,> 100 µM (inactive)
same,GI50,RPMI-8226,70.1 µM (inactive)
same,GI50,OVCAR-8,> 100 µM (inactive)
same,GI50,K562,46.9 µM (inactive)
same,GI50,OVCAR-3,> 100 µM (inactive)
same,GI50,NCI-H460,69.7 µM (inactive)
same,GI50,OVCAR-4,> 100 µM (inactive)
same,GI50,IGROV-1,> 100 µM (inactive)
same,GI50,SNB-19,> 100 µM (inactive)
same,GI50,MDA-MB-435,> 100 µM (inactive)
same,GI50,SK-MEL-28,> 100 µM (inactive)
same,GI50,HCT-15,> 100 µM
same,GI50,Malme-3M,90.4 µM (inactive)
same,GI50,SF-295,> 100 µM (inactive)
Cc1ccc(OCC2CO2)c(Br)c1 (stereo not given),GI50,SF-268,13.1 µM (inactive)
same,GI50,Hs-578T,28.5 µM (inactive)
same,GI50,NCI/ADR-RES,15.8 µM (inactive)
same,GI50,A498,34.4 µM (inactive)
same,GI50,HCT-116,16.1 µM (inactive)
same,GI50,COLO 205,17.7 µM (inactive)
same,GI50,CAKI-1,33.7 µM (inactive)
same,GI50,PC-3,47.3 µM (inactive)
same,GI50,MOLT-4,7.83 µM (inactive)
same,GI50,ACHN,5.5 µM (inactive)
same,GI50,HOP-62,39.4 µM (inactive)
same,GI50,MDA-MB-231,21.9 µM (inactive)
same,GI50,SF-539,15 µM (inactive)
same,GI50,OVCAR-5,17.5 µM (inactive)
same,GI50,EKVX,13.8 µM (inactive)
same,GI50,DU-145,38.4 µM (inactive)
same,GI50,TK-10,30.3 µM (inactive)
same,GI50,SN12C,18.6 µM (inactive)
same,GI50,SW-620,12.7 µM (inactive)
same,GI50,M14,34.1 µM (inactive)
same,GI50,MCF7,14.7 µM (inactive)
same,GI50,NCI-H226,15.9 µM (inactive)
same,GI50,HOP-92,14.7 µM (inactive)
same,GI50,A549,20.3 µM (inactive)
same,GI50,HT-29,12.7 µM (inactive)
same,GI50,UACC-62,17.7 µM (inactive)
same,GI50,T47D,63.1 µM (inactive)
same,GI50,UO-31,18.5 µM (inactive)
same,GI50,CCRF-CEM,27.9 µM (inactive)
same,GI50,HCC 2998,16 µM (inactive)
same,GI50,UACC-257,37.8 µM (inactive)
same,GI50,RXF 393,10.1 µM (inactive)
same,GI50,BT-549,< 0.01 µM (active)
same,GI50,786-0,19.5 µM (inactive)
same,GI50,U-251,15.2 µM (inactive)
same,GI50,SK-MEL-5,18.1 µM (inactive)
same,GI50,KM12,66.7 µM (inactive)
same,GI50,SK-OV-3,19.1 µM (inactive)
same,GI50,LOX IMVI,12.1 µM (inactive)
same,GI50,MDA-N,19.5 µM (inactive)
same,GI50,NCI-H23,22.5 µM (inactive)
same,GI50,RPMI-8226,25.1 µM (inactive)
same,GI50,OVCAR-8,7.8 µM (inactive)
same,GI50,K562,22.3 µM (inactive)
same,GI50,OVCAR-3,25.1 µM (inactive)
same,GI50,NCI-H460,21.9 µM (inactive)
same,GI50,OVCAR-4,14.7 µM (inactive)
same,GI50,IGROV-1,15.5 µM (inactive)
same,GI50,SNB-19,41.3 µM (inactive)
same,GI50,MDA-MB-435,18.7 µM (inactive)
same,GI50,SK-MEL-28,27.5 µM (inactive)
same,GI50,HL-60,30.1 µM (inactive)
same,GI50,HCT-15,14 µM
same,GI50,Malme-3M,56.5 µM (inactive)
same,GI50,SF-295,21 µM (inactive)
